EC50 data for 60 compounds are collected here from PubChem BioAssay AID1222 (Sanford-Burnham Center for Chemical Genomics, 2008).

Activity calls are given as the source filed them.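 Rule for the calls: active = EC50 below 50 µM in the dose-response confirmation; inactive = the rest.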

For this test, the system named is CSM14.1 thapsigargin-induced death rescue, ATP luminescence. Kind of test: rescue of cells from ER stress-induced death, primary screen, 384-well, CSM14.1, thapsigargin, ATP luminescence (AID 1222).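 Note: death triggered by thapsigargin at about 15 µM added after 2 h compound pretreatment; cell ATP read after overnight thapsigargin exposure of roughly 18 to 22 hours.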
As usually defined, the EC50 is the concentration needed to bring the measured effect to its halfway point. As for `COc1ccc(-c2oc3ccccc3c(=O)c2OC(C)=O)cc1`, the EC50 is > 100 µM (inactive).

As to `CCOc1cc(/C=N/NC(=O)COc2cccc(C)c2)ccc1OC(=O)c1cccs1`, the EC50 was > 100 µM (inactive). As for `CCCCC(=O)NC(=S)NNC(=O)c1ccc(Cl)cc1Cl`, the EC50 was > 100 µM (inactive).

Turning to `CCCCC(=O)NNC(=S)NC(=O)c1ccc(C)cc1`, the EC50 is > 100 µM (inactive).

`O=c1c2c(-c3ccccc3)csc2ncn1/N=C/c1cccc([N+](=O)[O-])c1O`: the EC50 is > 100 µM (inactive).

As to `CCOc1ccccc1NC(=O)C(OC(=O)c1ccccc1NS(=O)(=O)c1cccs1)c1ccccc1` (stereo not given), the EC50 is > 100 µM (inactive). `CN1CCC(O)(c2ccccc2)C(C(=O)c2ccccc2)C1` (stereo not given): the EC50 is > 100 µM (inactive). Under `COCCn1c(C)cc(C(=O)COC(=O)CCN2C(=O)c3ccccc3C2=O)c1C` stands > 100 µM (inactive); under `C/C(=N\NC(=S)Nc1cccc(C)c1)c1ccco1`, > 100 µM (inactive). Turning to `Cc1c(Cl)c(C(F)F)nn1CC(=O)NC1C(=O)N2C(C(=O)O)=C(CSc3nnnn3C)CSC12` (stereo not given), the EC50 was > 100 µM (inactive). On to `CC(C)CC(NC(=O)OC(C)(C)C)c1cn([C@@H](Cc2cc3ccccc3[nH]2)C(=O)N2CCN(C(=O)OC(C)(C)C)CC2)nn1` (stereo not given in full), for which the EC50 was 62.2 µM (inactive). Take `COc1ccc(/C=C/C(=O)N2CCCc3ccccc32)cc1`: the EC50 is > 100 µM (inactive). For `C#CCOCCOCCOCCNc1nc(N2CCN(C(=O)[C@H]([C@@H](C)CC)n3cc(CCCN=C(N)N)nn3)CC2)nc(N2CCN(C(=O)[C@H](CCCCN)n3cc(CCCC)nn3)CC2)n1`, the EC50 is > 100 µM (inactive). Under `Cc1ccc2cccc(N=Cc3c(C)[nH]n(-c4ccccc4)c3=O)c2n1` stands > 100 µM (inactive); under `CCN1CCc2c(OCC(=O)N3N=C(c4cccs4)CC3c3ccc(F)cc3)cccc2C1=O` (stereo not given), 42 µM; under `CCCC1=[N+](CC(C)=O)CCn2c(C)ccc21`, > 100 µM (inactive). Under `CCC(=O)NC(=S)NNC(=O)c1ccc(OC)cc1` stands > 100 µM (inactive).

For `Cc1ccc2c(C(=O)N3CCN(c4ccccc4)CC3)cc(-c3cccnc3)nc2c1C`, the EC50 was 81.3 µM (inactive). On to `COc1ccc(C(=O)C(OC(=O)c2ccccc2)c2ccccc2)cc1` (stereo not given), for which the EC50 is 66.5 µM (inactive). As for `CC[C@@H](C)[C@@H](C(=O)N1CCN(C(=O)OC(C)(C)C)CC1)n1cc(CCCN=C(NC(=O)OC(C)(C)C)NC(=O)OC(C)(C)C)nn1`, the EC50 was 58.5 µM (inactive).

As for `CCOC(=O)C1=C(NC(=S)NC(=O)c2ccccc2)c2ccccc2CC1(C)C`, the EC50 was > 100 µM (inactive).

For `CCN1C(=O)/C(=C/c2ccc3c(c2)CCN3CCCCl)C(=O)NC1=S`, the EC50 was 44.7 µM. `CC1=NN(/C(=N\c2nnc(C)s2)Nc2ccccc2)[C@H](c2ccc(C)cc2)S1`: the EC50 was > 100 µM (inactive). As to `O=c1[nH]c(-c2ccccn2)nc2sc(-c3ccccc3)cc12`, the EC50 is > 100 µM (inactive). The value for `COc1ccccc1Cn1c(=S)[nH]c2cc(C(=O)NCC3CCCO3)ccc2c1=O` (stereo not given) was > 100 µM (inactive); that for `CNC(=O)c1c(NC(=O)c2nc3ccccc3s2)sc2c1CCC2` was > 100 µM (inactive); that for `CC12COC3(P(=O)(c4ccccc4)c4ccccc4)CC1CCC23CP(=O)(c1ccccc1)c1ccccc1` (stereo not given) was 40.2 µM. Turning to `C#CCOCCOCCOCCNc1nc(N2CCN(C(=O)[C@H](CCCCN)n3cc(CCCC)nn3)CC2)nc(N2CCN(C(=O)[C@H](CCCCN)n3cc(CCCC)nn3)CC2)n1`, the EC50 is > 100 µM (inactive). Under `C=C(C)CNC(=S)N/N=C/c1ccc([N+](=O)[O-])cc1` stands > 100 µM (inactive). Under `CCN(CC)c1ccc(/C=C(/C#N)c2nc3ccc(C)cc3[nH]2)c(OC(C)C)c1` stands > 100 µM (inactive); under `O=C(Nc1nc(-c2cc(F)ccc2F)cs1)c1ccccn1`, > 100 µM (inactive); under `Cc1ccc(-c2nnn(CC(=O)N(Cc3cccs3)C(C(=O)NC3CCCC3)c3ccncc3)n2)cc1` (stereo not given), > 100 µM (inactive). The value for `CCC(=O)Nc1nc2ccccc2n1Cc1ccc(Cl)cc1` was > 100 µM (inactive). On to `COc1ccc(C2=C/C(=C\c3cccc(OC(C)=O)c3)C(=O)O2)cc1`, for which the EC50 is > 100 µM (inactive). Under `Cc1nc(N2CCN(C(=O)c3ccco3)CC2)c2c3c(sc2n1)CC(C)CC3` (stereo not given) stands 58.7 µM (inactive). Under `Cc1ccc(OCC(=O)NCCC2=CCCCC2)cc1` stands > 100 µM (inactive); under `COc1ccc(CN(C(=O)c2ccc3c(c2)OCCO3)C(C(=O)NC2CCCCC2)c2ccc3ncccc3c2)cc1` (stereo not given), 31.4 µM; under `CC(C)C(=O)N1CCC(CN=Cc2c(O)n(C3CCCCC3)c(=O)n(C3CCCCC3)c2=O)CC1`, 70.3 µM (inactive). Regarding `Cc1cccc(C(=O)O/N=C(/c2ccccc2)c2ccncc2)c1`, the EC50 was > 100 µM (inactive). As to `O=S(=O)(c1ccc2c(c1)OCCO2)N1CCN(c2nc(-c3cccnc3)nc3ccccc23)CC1`, the EC50 is 76.4 µM (inactive). On to `CCc1ccc(CC2S/C(=C(\C#N)C(C)=O)NC2=O)cc1` (stereo not given), for which the EC50 is > 100 µM (inactive).

In the case of `O=C(c1ccc(N2CCCC2=O)cc1)N1CCCCCC1`, the EC50 is > 100 µM (inactive). Under `CCO[C@@H]1OC(C(=O)N2CCN(Cc3ccc4c(c3)OCO4)CC2)=C[C@H](c2csc3ccccc23)[C@H]1CCCO` stands 86.1 µM (inactive). Under `COc1ccc(CNC(=O)CCCn2nc(C)c([N+](=O)[O-])c2C)cc1OC` stands > 100 µM (inactive); under `O=C(Nc1nonc1-c1ccc(Cl)cc1)c1ccccc1`, > 100 µM (inactive); under `Clc1ccc(OCCCN2CCCCC2)c(Br)c1`, > 100 µM (inactive). The value for `O=C(CSc1nnnn1-c1ccccc1)c1cc2ccccc2oc1=O` was > 100 µM (inactive); that for `O=C(NC1CCCCC1)C(c1ccncc1)N(Cc1ccccc1)C(=O)c1ccc(-c2ccccc2)[nH]1` (stereo not given) was 52.5 µM (inactive). As for `CC12C(=O)N(c3ccc(C(=O)N4CCOCC4)cc3)C(=O)C1C1c3ccccc3C2c2ccccc21` (stereo not given), the EC50 is > 100 µM (inactive). The value for `COC(=O)[C@@]1(Cc2ccc(F)cc2)[C@H]2c3cc(C(=O)N4CCCC4)n(CCc4c[nH]c5ccc(OC)cc45)c3C[C@H]2CN1C(=O)c1ccccc1` was 66.2 µM (inactive). For `COc1ccc(C(=O)NNC(=S)NC(=O)C(C)(C)C)cc1`, the EC50 was > 100 µM (inactive).

Turning to `CCCCCCn1c(O)c(/C=C2\C=NN=C2c2ccccc2)sc1=S`, the EC50 is > 100 µM (inactive). Under `COc1ccc(NC2=Nc3ccccc3N3C2=Nc2c(c(C)nn2-c2ccc(C)cc2)C3c2cccnc2)cc1` (stereo not given) stands 92.6 µM (inactive); under `C#CCOCCOCCOCCNc1nc(N2CCN(C(=O)[C@H](C)n3cc(CCCN=C(N)N)nn3)CC2)nc(N2CCN(C(=O)[C@H](C)n3cc(CCCN=C(N)N)nn3)CC2)n1`, > 100 µM (inactive); under `O=C(NC1CCCCC1)C(c1ccc2ncccc2c1)N(Cc1ccc(F)cc1)C(=O)c1ccc2c(c1)OCCO2` (stereo not given), 28.8 µM. Regarding `O=C(NC1CCCCC1)C(c1ccc2ncccc2c1)N(Cc1ccc2c(c1)OCO2)C(=O)c1ccc2c(c1)OCCO2` (stereo not given), the EC50 was 21.3 µM.

Take `O=C(NC1CCCCC1)C(c1ccc2ncccc2c1)N(Cc1ccccc1)C(=O)c1ccc2c(c1)OCCO2` (stereo not given): the EC50 is 32.3 µM. `Cc1cc(CNC(=O)Cc2ccccc2)c2ccccc2n1`: the EC50 was > 100 µM (inactive). Under `COC(=O)c1ccc(NC(=O)C2CC(=O)N(c3ccc(C)cc3)C2)cc1` (stereo not given) stands > 100 µM (inactive); under `COc1ccc(CN(C(=O)c2cccs2)C(C(=O)NC2CCCCC2)c2ccc3ncccc3c2)cc1` (stereo not given), 68.5 µM (inactive).
